Assay [1] deals with Vero. The assay can be described thus: Vero cell toxicity, dose response, cytotoxicity control, plate reader, cherry-pick samples (AID 687020). Type of assay: functional, cell-based. As to conditions: Chlorocebus sabaeus.
Assay [2] addresses T1, Low molecular weight phosphotyrosine protein phosphatase (Homo sapiens, UniProt P24666).
T1 sequence (P24666 whole entry): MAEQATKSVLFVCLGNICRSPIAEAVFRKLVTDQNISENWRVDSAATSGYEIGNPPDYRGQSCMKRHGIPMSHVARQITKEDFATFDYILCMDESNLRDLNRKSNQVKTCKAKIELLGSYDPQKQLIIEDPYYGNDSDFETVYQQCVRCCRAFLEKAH
In kind it is functional. As to conditions: read-out: IC50_Mean.

In assay [3] the target is T1, Low molecular weight phosphotyrosine protein phosphatase. In kind it is functional. The following applies: read-out: IC50_Mean. This is another data set of the same source.
The nature of assay [4]: Counterscreen for activators of the function of SWI/SNF related, matrix associated, actin dependent regulator of chromatin, subfamily a, member 2 (SMARCA2, BRM): Luminescence-based cell-based high throughput dose response assay to identify non-selective compounds using the VP16 reporter assay. Type of assay: functional. In general terms: Counterscreens check selectivity or assay interference.

Assay [5] addresses SWI/SNF-related matrix-associated actin-dependent regulator of chromatin subfamily A member 2 (Homo sapiens, UniProt P51531). The assay is described as follows: Luminescence-based cell-based high throughput dose response assay to identify activators of the function of SWI/SNF related, matrix associated, actin dependent regulator of chromatin, subfamily a, member 2 (SMARCA2, BRM). In kind it is functional.

The nature of assay [6]: Fluorescence-based cell-based high throughput dose response assay for inhibitors of the interaction of nucleotide-binding oligomerization domain containing 2 (NOD2) and the receptor-interacting serine-threonine kinase 2 (RIPK2). Type of assay: functional. The following applies: Homo sapiens.
The nature of assay [7]: HEK293T cytotoxicity, dose response, cytotoxicity control for miR-122 modulator project, cell-based, inhibitor set, cherry-pick, set 2 (AID 720697). In kind it is functional.
Assay [8] in a line: HEK293T cytotoxicity, dose response, cytotoxicity control for miR-122 modulator project, cell-based, activator set, cherry-pick (AID 720690).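 Further: HEK293T human cells scored for general mammalian cytotoxicity.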 Type of assay: functional.
The nature of assay [9]: miR-122 activators in hepatoma reporter cells, dose response, cell-based, Huh7 psiCHECK-miR122, Renilla luciferase, cherry-picked (AID 651956).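 Further: huh7 hepatoma cells stably carrying a psiCHECK-2 miR-122 sensor plasmid; renilla luciferase signal reporting endogenous miR-122 activity after 48 h compound exposure.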 In kind it is functional.
Assay [10] deals with T2, Microphthalmia-associated transcription factor (Homo sapiens, UniProt O75030).
T2 sequence (O75030 whole entry): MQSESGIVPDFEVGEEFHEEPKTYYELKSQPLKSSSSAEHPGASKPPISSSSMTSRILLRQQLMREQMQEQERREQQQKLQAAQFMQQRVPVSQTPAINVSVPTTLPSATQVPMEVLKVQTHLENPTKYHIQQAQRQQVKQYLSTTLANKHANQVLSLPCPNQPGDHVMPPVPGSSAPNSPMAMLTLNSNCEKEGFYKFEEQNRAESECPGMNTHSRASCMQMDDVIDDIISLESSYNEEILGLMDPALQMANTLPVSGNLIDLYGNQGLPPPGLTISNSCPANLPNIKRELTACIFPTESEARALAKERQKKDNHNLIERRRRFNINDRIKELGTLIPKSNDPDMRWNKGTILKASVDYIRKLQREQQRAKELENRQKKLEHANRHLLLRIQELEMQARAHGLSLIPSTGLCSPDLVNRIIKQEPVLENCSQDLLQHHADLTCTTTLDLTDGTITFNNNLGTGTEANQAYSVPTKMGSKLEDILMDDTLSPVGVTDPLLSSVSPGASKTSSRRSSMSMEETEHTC
The assay can be described thus: TRPM1 promoter luciferase signal decrease, dose response, MITF inhibitor project, cell-based, SK-MEL-5, cherry-picked, set 3 (AID 493073).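 Further: SK-MEL-5 melanoma cells with luciferase driven by the MITF target TRPM1 promoter.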 In kind it is functional.

Assay [11] concerns the target T3, Caspase-6 (Homo sapiens, UniProt P55212).
T3 sequence (P55212 whole entry): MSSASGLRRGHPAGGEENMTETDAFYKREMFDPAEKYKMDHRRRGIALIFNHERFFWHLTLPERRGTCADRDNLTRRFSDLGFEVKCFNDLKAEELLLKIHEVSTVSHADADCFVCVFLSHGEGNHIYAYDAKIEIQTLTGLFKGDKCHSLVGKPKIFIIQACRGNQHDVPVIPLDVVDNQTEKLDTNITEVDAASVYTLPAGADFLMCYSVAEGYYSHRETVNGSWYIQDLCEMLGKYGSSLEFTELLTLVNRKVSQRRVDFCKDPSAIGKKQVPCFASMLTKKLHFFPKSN
The assay can be described thus: human caspase-6 inhibitors, dose response, biochemical, VEID-R110 fluorescence, cherry-pick (AID 720632).

For assay [12], the target named is Paired box protein Pax-8 (Homo sapiens, UniProt Q06710). The assay can be described thus: inhibitors of PAX8-driven TPO luciferase reporter, dose response, RMG-I cells, cherry-pick (AID 687027).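 Further: luciferase reporter driven by Pax8 target thyroperoxidase promoter measured by SteadyGlo luminescence.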 In kind it is functional, cell-based. Background: Reporter assays use an easily measured gene product as a stand-in for the process of interest.
The nature of assay [13]: Luminescence Cell-Based Dose Retest to Confirm Inhibitors of Cancer Stem Cells. [Related pubchem assays (depositor defined):AID2717, AID2721]. Type of assay: functional. The following applies: Homo sapiens.
Assay [14] addresses T4, Corticotropin-releasing factor receptor 2/Corticotropin-releasing factor-binding protein (Homo sapiens, UniProt P24387+Q13324).
T4 sequence (Q13324 whole entry): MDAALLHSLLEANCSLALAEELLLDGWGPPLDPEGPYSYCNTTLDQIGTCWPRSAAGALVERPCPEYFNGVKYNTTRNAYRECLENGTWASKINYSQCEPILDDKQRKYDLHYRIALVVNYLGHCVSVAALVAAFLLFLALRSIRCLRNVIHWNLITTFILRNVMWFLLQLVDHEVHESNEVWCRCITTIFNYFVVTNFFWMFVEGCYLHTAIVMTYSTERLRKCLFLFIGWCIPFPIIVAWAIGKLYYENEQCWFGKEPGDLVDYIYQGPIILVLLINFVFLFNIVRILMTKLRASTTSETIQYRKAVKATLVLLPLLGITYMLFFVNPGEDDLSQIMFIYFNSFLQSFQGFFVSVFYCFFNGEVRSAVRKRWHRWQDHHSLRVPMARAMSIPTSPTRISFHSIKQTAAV
T4 sequence (P24387 whole entry): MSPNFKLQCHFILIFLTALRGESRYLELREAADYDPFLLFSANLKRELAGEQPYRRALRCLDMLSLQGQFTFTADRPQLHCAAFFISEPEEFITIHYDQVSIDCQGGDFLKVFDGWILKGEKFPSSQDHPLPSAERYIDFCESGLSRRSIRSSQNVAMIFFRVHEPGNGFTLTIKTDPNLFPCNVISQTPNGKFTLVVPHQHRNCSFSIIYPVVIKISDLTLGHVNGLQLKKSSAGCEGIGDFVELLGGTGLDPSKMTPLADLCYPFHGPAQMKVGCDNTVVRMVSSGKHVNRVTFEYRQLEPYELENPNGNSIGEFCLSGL
The assay is described as follows: activators of CRF receptor 2 with binding protein – uHTS hits, confirmation (AID 602473). Type of assay: functional. As to conditions: read-out: EC50_Mean.

Assay [15] deals with T5, Leucine aminopeptidase (Plasmodium falciparum 3D7, UniProt Q8IL11).
T5 sequence (Q8IL11 whole entry): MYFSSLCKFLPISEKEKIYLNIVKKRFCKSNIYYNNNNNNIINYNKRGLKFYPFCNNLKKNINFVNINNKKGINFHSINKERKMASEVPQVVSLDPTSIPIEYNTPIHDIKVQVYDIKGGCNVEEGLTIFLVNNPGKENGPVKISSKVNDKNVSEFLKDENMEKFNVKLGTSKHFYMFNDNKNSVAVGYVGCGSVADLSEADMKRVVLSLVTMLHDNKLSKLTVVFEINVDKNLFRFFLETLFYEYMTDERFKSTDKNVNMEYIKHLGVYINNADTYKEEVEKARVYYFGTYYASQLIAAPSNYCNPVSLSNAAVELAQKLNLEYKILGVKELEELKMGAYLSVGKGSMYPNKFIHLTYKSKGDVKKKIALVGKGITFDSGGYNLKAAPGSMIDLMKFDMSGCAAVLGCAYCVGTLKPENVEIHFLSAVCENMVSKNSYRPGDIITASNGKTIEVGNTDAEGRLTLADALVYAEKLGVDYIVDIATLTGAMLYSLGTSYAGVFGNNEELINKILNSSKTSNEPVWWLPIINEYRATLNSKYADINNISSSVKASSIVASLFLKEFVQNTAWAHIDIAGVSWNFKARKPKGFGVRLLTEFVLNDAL
The assay can be described thus: P. falciparum M17LAP inhibitors, primary screen, biochemical, fluorogenic H-Leu-NHMec substrate, 1536-well (AID 1619). In kind it is functional.

Assay [16] addresses T4, Corticotropin-releasing factor receptor 2/Corticotropin-releasing factor-binding protein. The assay is described as follows: Dose Response confirmation of uHTS hits for small molecule antagonists of the CRF-binding protein and CRF-R2 receptor complex. In kind it is functional. As to conditions: read-out: IC50_Mean.
In assay [17] the target is Photoreceptor-specific nuclear receptor (Homo sapiens, UniProt Q9Y5X4). In kind it is functional, cell-based.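 Further: CHO-S cells with Gal4-NCOR and VP16-NR2E3 two-hybrid luciferase reporter.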
Assay [18] can be described thus: CRF-BP/CRF-R2 complex antagonists, dose response, cell-based, uHTS hits, 384-well (AID 651639). Type of assay: functional, Homo sapiens. As to conditions: read-out: IC50_Mean.
The nature of assay [19]: control 3'UTR Renilla luciferase suppression, dose response, counter-screen for Shn3 inhibitor project, cell-based, Clone20-Shn3RL, cherry-picked (AID 624133). In kind it is functional.
Assay [20] in a line: HepG2 cell cytotoxicity, dose response, cytotoxicity control for Shn3 inhibitor project, CellTiter-Glo, cherry-picked (AID 624134). In kind it is functional, cell-based. (In ATP-based viability assays light output follows the ATP content of the culture.)
Assay [21] is described as follows: Shn3 3'UTR reporter inhibitors, dose response, cell-based, Clone20 osteoblasts, firefly luciferase, cherry-picked (AID 624132).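 Further: firefly luciferase luminescence from reporter carrying the Shn3 3'UTR in osteoblasts.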 Type of assay: functional.
Assay [22] deals with T6, Small ubiquitin-related modifier 1 (Homo sapiens, UniProt P63165). The assay is described as follows: inhibitors of SUMO1 partner interactions, dose response, biochemical, FRET (AID 624383). In kind it is functional. As to conditions: read-out: IC50_Mean.
Assay [23] addresses T6, Small ubiquitin-related modifier 1. The assay is described as follows: inhibitors of SUMO1 peptide binding, dose response, biochemical, fluorescence polarization, uHTS hits (AID 624382). Type of assay: functional. As to conditions: read-out: IC50_Mean.
The target of assay [24] is Beta-lactamase (Pseudomonas aeruginosa, UniProt Q79MP6).
Assay [25] addresses Beta-lactamase (Salmonella choleraesuis (strain SC-B67), UniProt Q5J463).
In assay [26] the target is Steroidogenic factor 1 (Homo sapiens, UniProt Q13285). The assay can be described thus: Counterscreen for inverse agonists of the liver receptor homolog-1 (LRH-1; NR5A2): Luminescence-based cell-based high throughput dose response assay to identify inverse agonists of the Steroidogenic Factor 1 Nuclear Receptor (SF1; NR5A1). Type of assay: functional.
Assay [27] concerns the target Nuclear receptor subfamily 5 group A member 2 (Homo sapiens, UniProt O00482). In kind it is functional, cell-based.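 Further: HEK293T cells transfected with LRH-1 and a StAR promoter luciferase reporter; potency for inhibitors that lower LRH-1 driven reporter light.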
Assay [28] can be described thus: StAR promoter reporter inhibition counter-screen, dose response, counter-screen for LRH-1 inverse agonist project, cell-based, luminescence, luciferase reporter (AID 651969). In kind it is functional.

Among the data in ChEMBL document CHEMBL1201862, “PubChem BioAssay data set” (2004) are AC50, IC50 and EC50 values, retold here.

Active and inactive are the calls of the source.

As a reminder, the AC50 is the concentration at which the activity in the assay is half-maximal.

Photoreceptor-specific nuclear receptor, sequence (Q9Y5X4 whole entry, the tested form may be a part): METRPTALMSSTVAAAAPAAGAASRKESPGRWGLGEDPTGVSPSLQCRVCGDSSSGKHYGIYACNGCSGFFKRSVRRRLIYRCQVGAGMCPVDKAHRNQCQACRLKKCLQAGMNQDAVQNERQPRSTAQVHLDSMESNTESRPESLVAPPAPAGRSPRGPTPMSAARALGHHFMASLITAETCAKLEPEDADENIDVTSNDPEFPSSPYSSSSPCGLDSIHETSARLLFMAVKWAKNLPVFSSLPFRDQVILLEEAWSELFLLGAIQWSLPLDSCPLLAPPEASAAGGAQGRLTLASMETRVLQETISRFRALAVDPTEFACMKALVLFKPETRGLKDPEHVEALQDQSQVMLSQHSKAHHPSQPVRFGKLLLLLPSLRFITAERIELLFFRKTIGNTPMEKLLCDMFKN
Nuclear receptor subfamily 5 group A member 2, sequence (O00482 whole entry): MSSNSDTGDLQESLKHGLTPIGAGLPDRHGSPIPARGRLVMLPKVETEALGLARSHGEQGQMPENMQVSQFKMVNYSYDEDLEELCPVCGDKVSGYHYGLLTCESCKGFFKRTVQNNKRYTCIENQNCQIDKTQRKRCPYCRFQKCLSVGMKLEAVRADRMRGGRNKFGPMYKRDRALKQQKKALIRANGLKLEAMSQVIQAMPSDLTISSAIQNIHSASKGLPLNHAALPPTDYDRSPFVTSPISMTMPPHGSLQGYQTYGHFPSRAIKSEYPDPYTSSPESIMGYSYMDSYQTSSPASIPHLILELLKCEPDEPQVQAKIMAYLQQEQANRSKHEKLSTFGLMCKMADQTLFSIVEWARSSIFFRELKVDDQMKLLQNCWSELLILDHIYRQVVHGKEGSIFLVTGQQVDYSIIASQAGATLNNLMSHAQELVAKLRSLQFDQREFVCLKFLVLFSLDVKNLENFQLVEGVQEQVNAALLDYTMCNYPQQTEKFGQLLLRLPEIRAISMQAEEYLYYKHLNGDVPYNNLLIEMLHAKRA
Steroidogenic factor 1, sequence (Q13285 whole entry): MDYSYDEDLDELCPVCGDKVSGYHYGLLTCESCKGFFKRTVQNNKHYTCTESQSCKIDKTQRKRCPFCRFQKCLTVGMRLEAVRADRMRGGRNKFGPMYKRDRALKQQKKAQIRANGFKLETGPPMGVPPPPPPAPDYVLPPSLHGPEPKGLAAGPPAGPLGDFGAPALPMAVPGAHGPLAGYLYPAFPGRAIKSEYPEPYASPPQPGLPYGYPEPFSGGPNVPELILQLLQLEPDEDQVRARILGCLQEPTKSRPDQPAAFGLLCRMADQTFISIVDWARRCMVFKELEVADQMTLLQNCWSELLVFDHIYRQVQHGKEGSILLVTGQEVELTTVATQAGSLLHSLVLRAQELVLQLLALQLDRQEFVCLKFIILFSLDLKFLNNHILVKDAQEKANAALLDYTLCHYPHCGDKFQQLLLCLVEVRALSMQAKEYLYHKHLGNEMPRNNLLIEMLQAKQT
T6 sequence (P63165 whole entry): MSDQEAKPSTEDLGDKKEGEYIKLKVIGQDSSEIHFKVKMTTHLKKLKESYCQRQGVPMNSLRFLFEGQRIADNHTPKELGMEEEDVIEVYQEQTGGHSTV
Paired box protein Pax-8, sequence (Q06710 whole entry): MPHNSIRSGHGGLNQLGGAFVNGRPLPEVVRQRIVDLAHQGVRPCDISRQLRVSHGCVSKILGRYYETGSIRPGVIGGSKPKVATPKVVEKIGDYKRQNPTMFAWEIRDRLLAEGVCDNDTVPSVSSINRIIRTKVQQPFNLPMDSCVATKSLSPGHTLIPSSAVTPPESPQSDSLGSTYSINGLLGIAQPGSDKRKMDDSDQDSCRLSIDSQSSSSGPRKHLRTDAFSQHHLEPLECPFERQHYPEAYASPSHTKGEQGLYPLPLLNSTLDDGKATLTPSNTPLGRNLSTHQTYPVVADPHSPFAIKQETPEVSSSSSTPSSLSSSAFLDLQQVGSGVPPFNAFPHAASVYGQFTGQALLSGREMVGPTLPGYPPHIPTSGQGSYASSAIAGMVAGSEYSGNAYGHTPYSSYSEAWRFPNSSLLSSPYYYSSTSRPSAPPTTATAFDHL
SWI/SNF-related matrix-associated actin-dependent regulator of chromatin subfamily A member 2, sequence (P51531 whole entry): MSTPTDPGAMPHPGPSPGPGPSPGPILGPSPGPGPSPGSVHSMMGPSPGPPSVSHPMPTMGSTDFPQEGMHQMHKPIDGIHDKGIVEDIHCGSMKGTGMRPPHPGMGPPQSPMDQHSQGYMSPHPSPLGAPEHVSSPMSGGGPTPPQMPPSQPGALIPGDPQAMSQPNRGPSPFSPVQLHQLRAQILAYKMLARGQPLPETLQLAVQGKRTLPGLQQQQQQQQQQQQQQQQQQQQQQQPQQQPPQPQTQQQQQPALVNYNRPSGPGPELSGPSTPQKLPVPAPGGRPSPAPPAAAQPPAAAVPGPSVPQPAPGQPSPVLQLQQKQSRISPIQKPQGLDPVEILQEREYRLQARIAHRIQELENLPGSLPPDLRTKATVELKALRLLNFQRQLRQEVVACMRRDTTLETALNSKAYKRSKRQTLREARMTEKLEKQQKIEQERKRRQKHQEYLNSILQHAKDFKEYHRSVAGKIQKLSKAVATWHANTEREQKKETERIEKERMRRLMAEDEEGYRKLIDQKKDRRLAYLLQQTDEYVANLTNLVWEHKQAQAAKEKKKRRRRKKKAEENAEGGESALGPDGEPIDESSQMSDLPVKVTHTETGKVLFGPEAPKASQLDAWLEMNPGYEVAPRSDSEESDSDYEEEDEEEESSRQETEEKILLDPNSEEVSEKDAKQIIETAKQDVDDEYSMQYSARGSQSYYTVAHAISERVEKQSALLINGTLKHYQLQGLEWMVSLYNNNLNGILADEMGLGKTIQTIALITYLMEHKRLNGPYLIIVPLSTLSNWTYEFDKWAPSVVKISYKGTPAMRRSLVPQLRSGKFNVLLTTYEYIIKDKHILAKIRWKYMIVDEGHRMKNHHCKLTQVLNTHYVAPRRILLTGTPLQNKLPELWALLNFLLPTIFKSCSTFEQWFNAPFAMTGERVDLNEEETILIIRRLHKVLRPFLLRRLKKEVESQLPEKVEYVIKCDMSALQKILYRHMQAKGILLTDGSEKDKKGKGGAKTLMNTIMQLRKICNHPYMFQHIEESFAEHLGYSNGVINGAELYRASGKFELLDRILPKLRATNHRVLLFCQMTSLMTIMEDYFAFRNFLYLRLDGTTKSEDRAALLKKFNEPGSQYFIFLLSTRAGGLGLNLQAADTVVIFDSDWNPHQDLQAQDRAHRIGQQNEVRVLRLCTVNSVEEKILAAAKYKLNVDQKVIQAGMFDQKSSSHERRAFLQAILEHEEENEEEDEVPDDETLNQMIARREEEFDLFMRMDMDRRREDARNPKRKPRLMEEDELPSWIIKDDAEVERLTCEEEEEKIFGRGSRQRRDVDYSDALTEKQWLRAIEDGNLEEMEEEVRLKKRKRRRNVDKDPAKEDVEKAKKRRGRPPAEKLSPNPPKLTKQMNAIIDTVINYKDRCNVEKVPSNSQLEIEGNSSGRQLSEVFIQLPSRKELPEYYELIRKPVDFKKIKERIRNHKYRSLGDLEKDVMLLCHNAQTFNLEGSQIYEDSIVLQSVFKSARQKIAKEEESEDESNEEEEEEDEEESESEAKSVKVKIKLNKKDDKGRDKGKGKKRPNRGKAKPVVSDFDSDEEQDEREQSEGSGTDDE
Beta-lactamase (Pseudomonas aeruginosa, UniProt Q79MP6), sequence (Q79MP6 whole entry): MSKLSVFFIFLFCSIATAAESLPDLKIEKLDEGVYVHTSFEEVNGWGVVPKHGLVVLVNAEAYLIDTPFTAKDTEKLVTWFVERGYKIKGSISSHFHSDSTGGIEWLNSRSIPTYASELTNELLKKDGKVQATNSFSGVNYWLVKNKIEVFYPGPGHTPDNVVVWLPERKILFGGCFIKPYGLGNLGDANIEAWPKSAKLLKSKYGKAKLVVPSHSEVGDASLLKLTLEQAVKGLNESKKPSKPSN
Beta-lactamase (Salmonella choleraesuis (strain SC-B67), UniProt Q5J463), sequence (Q5J463 whole entry): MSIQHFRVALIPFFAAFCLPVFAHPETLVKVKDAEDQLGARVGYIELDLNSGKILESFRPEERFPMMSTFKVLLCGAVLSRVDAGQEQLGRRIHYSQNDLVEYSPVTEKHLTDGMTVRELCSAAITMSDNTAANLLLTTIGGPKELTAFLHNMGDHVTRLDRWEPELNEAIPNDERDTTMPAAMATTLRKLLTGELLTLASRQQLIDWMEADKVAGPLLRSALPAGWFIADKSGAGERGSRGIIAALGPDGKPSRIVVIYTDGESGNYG

For `Cc1cc(Cl)c2oc(C(=O)N(C)CCCCN3CCOCC3)c(C)c2c1`, the concentration at half-maximal activity (AC50) in [1] was 30.2 µM (active).

With `O=C(N/N=C/c1ccc(OC(=O)c2cccc(F)c2)cc1)c1cccnc1`, the IC50 in assay [2] is 14.4 µM (active); in assay [3] it was 15.4 µM (active).

On to `OCC1OC(n2cnc3c(SCc4ccccc4)ncnc32)C(O)C1O` (stereo unspecified), for which the EC50 in assay [4] and in [5] was > 91.3 µM (inactive) each time.

On to `Cc1ccc(NC(=O)CN(C)C(=O)Cn2ncc(Cl)c(Cl)c2=O)cc1`, for which the IC50 in assay [6] was 4.34 µM (active). Besides, the AC50 in [7] is 8.04 µM (active); in [8] it was 3.57 µM (active); in [9], 4.2 µM (active); in assay [10] it was 9.16 µM (active); in [11] it was 5.9 µM (active); in assay [12], 3.57 µM (active). The AC50 in [13] was 4.54 µM (active).

As to `Cc1ccc(S(=O)(=O)N(CC(=O)Nc2ccccc2C(=O)O)c2cccc(Cl)c2C)cc1`, the EC50 in assay [14] is 41.2 µM (active). Further, the IC50 is 24.7 µM (active) in [15], 41.1 µM (active) in assay [16], 2.15 µM (active) in assay [17] and 15.6 µM (active) in [18].

For the compound `CC(C)c1ccc(Nc2ncc3c(n2)CCN(C(=O)Nc2ccc(F)c(Cl)c2)C3)cc1`, the AC50 in assay [1] was 21 µM (active).

Regarding `CC(C)(C)NCC(=Cc1ccccc1)C(=O)c1ccccc1`, the IC50 is 10.4 µM (inactive) in assay [6] and 2.91 µM (active) in [17]. The AC50 was 6.44 µM (active) in assay [19], 11.1 µM (active) in assay [20] and 4.51 µM (active) in assay [21].

In the case of `COc1ccccc1-c1csc(-n2ncc(C#N)c2N)n1`, the IC50 is 6.71 µM (active) in assay [22], > 66.6 µM (inactive) in assay [23], > 59.6 µM (inactive) in [24] and > 59.6 µM (inactive) in assay [25].

For `O=C(CN1CCN(c2ccccc2F)CC1)c1ccc2cc[nH]c2c1`, the IC50 in [2] was 5.49 µM (active); in assay [3], 14.6 µM (active).

Consider `Cc1cc(=O)oc2c(C)c(OCC(=O)NC3CC(C)(C)NC(C)(C)C3)ccc12`, for which the IC50 in [26], in assay [27] and in [28] was 35.9 µM (inactive) throughout.

As to `C/C(=N\Nc1cc(C(F)(F)F)ccc1Cl)c1ccncc1`, the IC50 is 12 µM (inactive) in [26], 26.2 µM (inactive) in assay [27] and 35.9 µM (inactive) in assay [28].
